Experimental data from the supplement of paper PMC4862054.

Key:
Settings in all cases: incubation time: 72 h
[1] = test system: BT-474; assay: normalised viability (% of control), CellTiter-Blue; higher = more viable cells (about 100 = DMSO control)
Protocol: (§1)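 DSRT, CellTiter-Blue viability, 72 h incubation. Signal is normalised to DMSO and benzethonium chloride controls. Value is the normalised response at dose 3.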

[2] = test system: DU-4475; assay: as above
Protocol: as §1

[3] = test system: HCC1599; assay: as above
Protocol: as §1

[4] = test system: MDA-MB-453; assay: as above
Protocol: as §1

[5] = test system: MFM-223; assay: as above
Protocol: as §1

[6] = test system: SK-BR-3; assay: as above
Protocol: as §1

[7] = test system: BT-474; assay: normalised viability (% of control), CellTiter-Blue; higher = more viable cells (about 100 = DMSO control); remark: listed apart in the source
Summary of the method: (§2)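 After 72 h on compound-loaded 384-well plates, breast cancer cell lines received 2.5 µl CellTiter-Blue reagent for 2 h at 37 °C. Fluorescence at 560/590 nm was scaled per plate so that vehicle was 100 and a positive kill control was 0. The value stands for normalised viability at a single listed concentration of the series.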

[8] = test system: BT-549; assay: as above
Summary of the method: as §2

[9] = test system: CAL-120; assay: as above
Summary of the method: as §2

[10] = test system: CAL-148; assay: as above
Summary of the method: as §2

[11] = test system: CAL-51; assay: as above
Summary of the method: as §2

[12] = test system: CAL-85-1; assay: as above
Summary of the method: as §2

[13] = test system: DU-4475; assay: as above; remark: listed apart in the source
Summary of the method: as §2

[14] = test system: HCC1143; assay: as above
Summary of the method: as §2

[15] = test system: HCC1599; assay: as above; remark: listed apart in the source
Summary of the method: as §2

[16] = test system: HCC1937; assay: as above
Summary of the method: as §2

[17] = test system: HDQ-P1; assay: as above
Summary of the method: as §2

[18] = test system: Hs578T; assay: as above
Summary of the method: as §2

[19] = test system: MDA-MB-231; assay: as above
Summary of the method: as §2

[20] = test system: MDA-MB-436; assay: as above
Summary of the method: as §2

[21] = test system: MDA-MB-453; assay: as above; remark: listed apart in the source
Summary of the method: as §2

[22] = test system: MDA-MB-468; assay: as above
Summary of the method: as §2

[23] = test system: MFM-223; assay: as above; remark: listed apart in the source
Summary of the method: as §2

[24] = test system: SK-BR-3; assay: as above; remark: listed apart in the source
Summary of the method: as §2

[25] = test system: Hs578T; assay: drug sensitivity score (DSS), CellTox Green (DSS (AUC-based score)); higher = stronger drug effect (viability inhibition or cytotoxicity); extreme values may be limits of the assay
Summary of the method: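 Using 20 µl of cell suspension per well, breast cancer cell lines were seeded into 384-well plates pre-loaded with compound at 5 concentrations in 10-fold steps across a compound-specific 10,000-fold range. Incubation lasted 72 h, after which CellTox Green fluorescence at 485/520 nm and then CellTiter-Glo luminescence, following 10 min at room temperature, were recorded. Each plate was normalised to 0.1 % DMSO and a positive kill control before the drug sensitivity score was derived from the area under the fitted dose-response curve.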

CN1CC[C@H](c2c(O)cc(O)c3c(=O)cc(-c4ccccc4Cl)oc23)[C@H](O)C1 [Alvocidib]
Settings	normalised viability [%]
[1], 100 nM	96.4
[2], 10 nM	93
[3], 100 nM	82.4
[4], 10 nM	98.1
[5], 100 nM	76.3
[6], 100 nM	46.9
[7], 10 nM	102
[7], 1000 nM	23
[7], 10000 nM	26.6
[8], 10 nM	92
[8], 1000 nM	9
[8], 10000 nM	7.78
[9], 10 nM	67.7
[9], 1000 nM	10.7
[9], 10000 nM	11.1
[10], 3 nM	86
[10], 30 nM	89.6
[10], 100 nM	70.8
[11], 3 nM	109
[11], 30 nM	92.5
[11], 100 nM	78.1
[12], 3 nM	82.7
[12], 30 nM	79.9
[12], 100 nM	76.6
[13], 3 nM	90.7
[13], 30 nM	79.2
[13], 100 nM	78.6
[14], 10 nM	76.5
[14], 1000 nM	14.1
[14], 10000 nM	15.1
[15], 10 nM	124
[15], 1000 nM	19.6
[15], 10000 nM	21.9
[16], 10 nM	79.5
[16], 1000 nM	15
[16], 10000 nM	18.7
[17], 3 nM	88.6
[17], 30 nM	87.6
[17], 100 nM	84.2
[18], 10 nM	90.8
[18], 1000 nM	4.18
[18], 10000 nM	2.76
[19], 10 nM	88.2
[19], 1000 nM	7.07
[19], 10000 nM	6.37
[20], 10 nM	91
[20], 1000 nM	14.9
[20], 10000 nM	15.8
[21], 3 nM	104
[21], 30 nM	91.4
[21], 100 nM	73
[22], 10 nM	108
[22], 1000 nM	10.4
[22], 10000 nM	5.45
[23], 10 nM	87.3
[23], 1000 nM	8.79
[23], 10000 nM	8.79
[24], 10 nM	88.5
[24], 1000 nM	4.29
[24], 10000 nM	5.99

Settings	drug sensitivity score
[25]	8.33

S=c1[nH]cnc2nc[nH]c12 [Mercaptopurine]
Settings	normalised viability [%]
[1], 100 nM	111
[2], 10 nM	130
[3], 100 nM	93.5
[4], 10 nM	113
[5], 100 nM	93.6
[6], 100 nM	94
[7], 10 nM	116
[7], 1000 nM	108
[7], 10000 nM	112
[8], 10 nM	115
[8], 1000 nM	105
[8], 10000 nM	95.6
[9], 10 nM	88.1
[9], 1000 nM	83.7
[9], 10000 nM	47.3
[10], 3 nM	99.5
[10], 30 nM	98.7
[10], 100 nM	92.8
[11], 3 nM	105
[11], 30 nM	101
[11], 100 nM	106
[12], 3 nM	101
[12], 30 nM	91.8
[12], 100 nM	103
[13], 3 nM	103
[13], 30 nM	87.6
[13], 100 nM	87.8
[14], 10 nM	85.8
[14], 1000 nM	95.7
[14], 10000 nM	88.5
[15], 10 nM	103
[15], 1000 nM	96.3
[15], 10000 nM	106
[16], 10 nM	87.5
[16], 1000 nM	86.9
[16], 10000 nM	48.1
[17], 3 nM	123
[17], 30 nM	110
[17], 100 nM	100
[18], 10 nM	118
[18], 1000 nM	123
[18], 10000 nM	86.7
[19], 10 nM	101
[19], 1000 nM	95.9
[19], 10000 nM	88.7
[20], 10 nM	89.8
[20], 1000 nM	74.1
[20], 10000 nM	83
[21], 3 nM	116
[21], 30 nM	98.1
[21], 100 nM	110
[22], 10 nM	108
[22], 1000 nM	64.9
[22], 10000 nM	69
[23], 10 nM	101
[23], 1000 nM	94
[23], 10000 nM	103
[24], 10 nM	107
[24], 1000 nM	95.6
[24], 10000 nM	63.5

Settings	drug sensitivity score
[25]	0

COc1cccc2c1C(=O)c1c(O)c3c(c(O)c1C2=O)C[C@@](O)(C(=O)CO)C[C@@H]3O[C@H]1C[C@H](N)[C@H](O)[C@H](C)O1 [Doxorubicin]
Settings	normalised viability [%]
[1], 10 nM	95.5
[2], 1 nM	103
[3], 10 nM	102
[4], 1 nM	99.1
[5], 10 nM	89.4
[6], 10 nM	75.6
[7], 1 nM	97.3
[7], 100 nM	84.7
[7], 1000 nM	34.1
[8], 1 nM	114
[8], 100 nM	76.5
[8], 1000 nM	5.36
[9], 1 nM	96.2
[9], 100 nM	52.6
[9], 1000 nM	6.93
[10], 0.3 nM	86.5
[10], 3 nM	93
[10], 10 nM	73.6
[11], 0.3 nM	102
[11], 3 nM	100
[11], 10 nM	96.2
[12], 0.3 nM	90
[12], 3 nM	92.3
[12], 10 nM	90.4
[13], 0.3 nM	93.8
[13], 3 nM	91.6
[13], 10 nM	64
[14], 1 nM	101
[14], 100 nM	60.2
[14], 1000 nM	32.2
[15], 1 nM	93
[15], 100 nM	74.8
[15], 1000 nM	59
[16], 1 nM	86.6
[16], 100 nM	37
[16], 1000 nM	22.2
[17], 0.3 nM	104
[17], 3 nM	96.8
[17], 10 nM	93
[18], 1 nM	115
[18], 100 nM	71.3
[18], 1000 nM	6.05
[19], 1 nM	85.1
[19], 100 nM	64.4
[19], 1000 nM	25.8
[20], 1 nM	90.6
[20], 100 nM	64.5
[20], 1000 nM	18.2
[21], 0.3 nM	105
[21], 3 nM	102
[21], 10 nM	101
[22], 1 nM	99.7
[22], 100 nM	65.9
[22], 1000 nM	4.32
[23], 1 nM	91.8
[23], 100 nM	98
[23], 1000 nM	21.4
[24], 1 nM	87.9
[24], 100 nM	41.3
[24], 1000 nM	8.28

Settings	drug sensitivity score
[25]	0
